“Also recorded” adds a separate entry of the source.
Columns and labels:
[1] = system: S. aureus NRS384; assay: S. aureus intracellular killing assay in THP-1 macrophages; assay type: cell-based; settings: S. aureus NRS384 in THP-1 macrophages, 2 h, top conc. 1e−6 M
Protocol: (§1) THP-1 monocytic cell line (American Type Culture Collection) was grown in media (RPMI + 10% FBS + 1% Penicillin/Streptomycin), then seeded at a density of 1e5 cells/well in a 96 well plate and differentiated into macrophages for 3 days prior to infection using 200 nM PMA. Overnight culture of S. aureus or S. typhimurium was grown in RPMI or TSB, respectively, washed twice with PBS and resuspended at 1e7 cfu/ml in PBS. THP-1 were washed with warm media (RMPI without FBS) to remove the Penicillin/Streptomycin and then infected with the bacterial suspension at a multiplicity of infection of 10:1 (S. aureus:macrophages) or 5:1 (S. typhimurium:macrophages). Plates were centrifuged at 300 × g for 5 min to synchronize adhesion of the bacteria to the macrophages, then incubated at 37 °C for 2 h for S. aureus infection or 1 h for S. typhimurium infection. Free-floating bacteria were removed by washing twice with warm media and the remaining extracellular bacteria were killed by addition of media containing gentamicin (50 ug/ml). After 1 h, media was aspirated and the indicated compound was added to the S. aureus-infected macrophages in a dilution series starting at 1e−6 M, with 1:5 dilutions for 6 points (1.0 × 10^−6 M, 2.0 × 10^−7 M, 4.0 × 10^−8 M, 8.0 × 10^−9 M, 1.6 × 10^−9 M, and 3.2 × 10^−10 M) or to the to the S. typhimurium-infected macrophages in a dilution series starting at 1e−4 M, with 1:3 dilutions followed by 1:10 dilutions for 6 points (1.0 × 10^−4 M, 3.0 × 10^−5 M, 1.0 × 10^−5 M, 1.0 × 10^−6 M, 1.0 × 10^−7 M, and 1.0 × 10^−8 M). The compounds were added in media containing 50 µg/ml gentamicin to prevent extracellular growth of bacteria. After 2 h, plates were washed twice with warm RPMI without FBS, and 100 μl of THP-1 lysis buffer (0.1% Triton in PBS) was added to each well. Bacterial survival was enumerated by colony forming units (cfu) through serial dilution and plating onto tryptic soy agar (TSA, Teknova) plates.

[2] = system: S. aureus NRS384; assay: S. aureus broth killing (growth inhibition) assay; settings: S. aureus NRS384, TSB, 24 h, OD600
Text: (§3) To test the potency of rifamycin analogs of the disclosure in vitro, a broth growth inhibition assay was developed.

[3] = in vitro; settings: CD-1, mouse
[4] = biological target: P-gp (MDR1) (Homo sapiens, UniProt P08183); assay: in vitro; settings: dog, MDCK-MDR1
[5] = in vitro; settings: SD, rat
[6] = Human plasma protein binding
[7] = in vitro; settings: human, Caco-2
[8] = system: endogenous transporters; assay: in vitro; settings: human, Caco-2
[9] = Compound stability in CYP induction assay
[10] = system: Caco-2: endogenous transporters; assay: Caco-2 permeability
[11] = system: CYP3A4; assay: in vitro; settings: human
[12] = system: CYP2B6; assay: in vitro; settings: human
[13] = system: CYP1A2; assay: in vitro; settings: human
[14] = human
[15] = biological target: MDCK-MDR1: overexpression of Pgp (Homo sapiens, UniProt P08183); assay: MDCK-MDR1 permeability and efflux
[16] = biological target: hERG (Homo sapiens, UniProt Q12809); assay: in vitro
[17] = system: S. aureus MRSA strain NRS384; assay: S. aureus IV advanced disseminated infection mouse model, kidney burden; assay type: in vivo, Balb/c mice; settings: for S. aureus kidney burden, efficacy: NRS384
Protocol: (§2) S. aureus MSRA strain NRS384 or N315 (BEI Resources), where indicated, was grown overnight in TSB and sub-cultured to mid-logarithmic phase. […] From 1 to 3 days post-infection, indicated mice were injected subcutaneously with 110 mg/kg vancomycin twice daily where indicated. […] Mice were monitored for weight loss and body conditioning score throughout the infection. At 4 days post-infection, mice were euthanized, and the S. aureus kidney burden was quantified by tissue homogenization followed by enumeration of cfu through serial dilution in PBS and plating onto TSA plates. Data points represent the kidney burden from individual mice tested. Statistical analysis was conducted with GraphPad Prism 9, Version 9.4.1.

[18] = system: S. aureus MRSA strain N315; assay: as above; assay type: in vivo, Balb/c mice
Protocol: as §2

[19] = system: Sprague Dawley rats; assay: 2-week IV once-a-day toxicity study with 2-week recovery in Sprague Dawley rats
Protocol: A subset from each dose group was maintained for 14 days after the last dose to evaluate delayed toxicity and/or recovery. All animals were observed twice daily for mortality and signs of pain or distress. Detailed clinical observations, body weight measurements and food consumption were conducted weekly; post dose observations (30 min post dose) were conducted daily or as required. Clinical pathology evaluations (hematology, coagulation parameters, and serum chemistry) were performed using samples collected on the day of scheduled sacrifice (main and recovery). At the end of the 14-day dosing period, and at the end of the 14-day recovery period, necropsies were performed on all animals, selected organs were weighed, and tissues were examined macroscopically and microscopically. Toxicokinetic parameters were evaluated on Day 1 and 14.

[20] = system: Salmonella typhimurium ATCC 14028; assay: S. typhimurium broth killing (growth inhibition) assay; settings: Salmonella typhimurium ATCC 14028, TSB, 24 h
Text: as §3

[21] = system: Salmonella typhimurium AR-0031; assay: as above; settings: Salmonella typhimurium AR-0031, TSB, 24 h
Text: as §3

[22] = system: Salmonella typhimurium ATCC 14028; assay: S. typhimurium intracellular killing assay in THP-1 macrophages; assay type: cell-based; settings: Salmonella typhimurium ATCC 14028 in THP-1 macrophages, top conc. 1e−4 M
Protocol: as §1

[23] = system: Salmonella typhimurium AR-0031; assay: as above; assay type: cell-based; settings: Salmonella typhimurium AR-0031 in THP-1 macrophages, top conc. 1e−4 M
Protocol: as §1

[24] = 25 mg/kg in combination with vancomycin

MDCK-MDR1: overexpression of Pgp, sequence (P08183 whole entry): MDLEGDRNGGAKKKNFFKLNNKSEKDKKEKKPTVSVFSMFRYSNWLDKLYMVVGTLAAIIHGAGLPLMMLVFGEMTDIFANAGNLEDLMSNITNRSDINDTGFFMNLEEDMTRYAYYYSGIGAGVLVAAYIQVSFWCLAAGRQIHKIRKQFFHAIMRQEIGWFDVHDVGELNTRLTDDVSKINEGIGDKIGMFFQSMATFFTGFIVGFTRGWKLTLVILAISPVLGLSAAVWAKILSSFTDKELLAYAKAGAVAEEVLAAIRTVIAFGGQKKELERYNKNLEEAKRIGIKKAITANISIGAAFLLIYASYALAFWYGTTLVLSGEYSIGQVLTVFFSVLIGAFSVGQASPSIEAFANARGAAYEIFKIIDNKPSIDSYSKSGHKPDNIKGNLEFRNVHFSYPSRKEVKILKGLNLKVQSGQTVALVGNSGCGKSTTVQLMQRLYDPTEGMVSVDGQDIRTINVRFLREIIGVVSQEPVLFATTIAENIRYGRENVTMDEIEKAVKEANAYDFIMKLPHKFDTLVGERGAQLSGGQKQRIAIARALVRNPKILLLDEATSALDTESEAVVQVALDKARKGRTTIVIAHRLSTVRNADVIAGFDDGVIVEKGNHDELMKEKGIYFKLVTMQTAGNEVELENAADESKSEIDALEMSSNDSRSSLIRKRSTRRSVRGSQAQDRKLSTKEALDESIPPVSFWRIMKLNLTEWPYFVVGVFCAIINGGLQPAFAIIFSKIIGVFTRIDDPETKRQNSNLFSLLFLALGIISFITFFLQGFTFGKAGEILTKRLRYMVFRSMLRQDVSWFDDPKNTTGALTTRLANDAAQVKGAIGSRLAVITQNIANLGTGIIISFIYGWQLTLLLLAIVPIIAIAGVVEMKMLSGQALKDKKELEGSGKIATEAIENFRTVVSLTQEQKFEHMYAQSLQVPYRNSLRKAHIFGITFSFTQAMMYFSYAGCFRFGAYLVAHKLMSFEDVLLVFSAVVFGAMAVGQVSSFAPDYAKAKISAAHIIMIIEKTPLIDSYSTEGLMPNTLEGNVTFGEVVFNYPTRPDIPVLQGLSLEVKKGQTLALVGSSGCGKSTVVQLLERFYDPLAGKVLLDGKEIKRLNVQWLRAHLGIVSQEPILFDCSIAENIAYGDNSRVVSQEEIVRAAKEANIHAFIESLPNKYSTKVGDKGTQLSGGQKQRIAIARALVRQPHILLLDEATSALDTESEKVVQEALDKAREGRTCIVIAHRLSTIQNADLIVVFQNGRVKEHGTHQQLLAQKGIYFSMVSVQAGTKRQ
P-gp (MDR1), sequence (P08183 whole entry): as above
hERG, sequence (Q12809 whole entry): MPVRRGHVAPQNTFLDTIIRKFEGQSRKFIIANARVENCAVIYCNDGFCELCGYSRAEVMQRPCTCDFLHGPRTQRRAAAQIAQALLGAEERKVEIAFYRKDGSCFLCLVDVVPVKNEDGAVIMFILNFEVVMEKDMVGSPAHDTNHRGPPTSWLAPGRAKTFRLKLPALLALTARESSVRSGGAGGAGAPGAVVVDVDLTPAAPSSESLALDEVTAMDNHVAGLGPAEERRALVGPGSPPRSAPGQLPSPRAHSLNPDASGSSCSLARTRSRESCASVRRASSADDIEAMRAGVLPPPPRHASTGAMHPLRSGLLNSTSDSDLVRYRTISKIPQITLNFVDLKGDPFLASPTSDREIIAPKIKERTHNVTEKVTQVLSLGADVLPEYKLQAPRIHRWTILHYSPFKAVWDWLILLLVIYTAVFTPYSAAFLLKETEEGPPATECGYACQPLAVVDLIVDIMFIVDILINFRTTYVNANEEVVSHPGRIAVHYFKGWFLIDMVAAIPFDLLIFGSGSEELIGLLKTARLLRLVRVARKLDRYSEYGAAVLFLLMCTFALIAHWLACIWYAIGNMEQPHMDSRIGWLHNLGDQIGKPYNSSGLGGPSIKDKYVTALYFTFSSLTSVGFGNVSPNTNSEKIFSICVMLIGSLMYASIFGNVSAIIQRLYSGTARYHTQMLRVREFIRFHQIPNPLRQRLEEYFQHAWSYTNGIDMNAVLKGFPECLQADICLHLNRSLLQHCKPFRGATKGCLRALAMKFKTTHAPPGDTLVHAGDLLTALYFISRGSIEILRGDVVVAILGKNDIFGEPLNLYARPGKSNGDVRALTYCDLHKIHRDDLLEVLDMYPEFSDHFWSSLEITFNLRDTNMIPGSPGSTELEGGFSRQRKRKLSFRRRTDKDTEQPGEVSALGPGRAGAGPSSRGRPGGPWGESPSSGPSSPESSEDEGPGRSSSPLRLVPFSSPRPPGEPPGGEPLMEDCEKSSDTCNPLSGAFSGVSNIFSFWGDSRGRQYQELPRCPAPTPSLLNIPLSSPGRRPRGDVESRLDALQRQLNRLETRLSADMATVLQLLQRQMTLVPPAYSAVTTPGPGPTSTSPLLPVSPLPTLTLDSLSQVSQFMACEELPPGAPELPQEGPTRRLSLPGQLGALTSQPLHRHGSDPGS

COC1C=COC2(C)Oc3c(C)c(O)c4c(=O)c(c5oc6ccc(OCCN(C)C)cc6nc-5c4c3C2=O)NC(=O)C(C)=CC=CC(C)C(O)C(C)C(O)C(C)C(OC(C)=O)C1C (centres unmarked) [Compound 6]
Intracellular MIC [1]: 1 µM | Broth MIC [2]: 0.0625 µM

COC1C=COC2(C)Oc3c(C)c(O)c4c(=O)c(c5oc6cc(OCCN)ccc6nc-5c4c3C2=O)NC(=O)C(C)=CC=CC(C)C(O)C(C)C(O)C(C)C(OC(C)=O)C1C (centres unmarked) [Compound 2]
Intracellular MIC [1]: 1 µM | Broth MIC [2]: 0.412 µM

CO[C@H]1/C=C/O[C@@]2(C)Oc3c(C)c(O)c4c(c3C2=O)C2=NC3(CCN(CC(C)C)CC3)NC2=C(NC(=O)/C(C)=C\C=C\[C@H](C)[C@H](O)[C@@H](C)[C@@H](O)[C@@H](C)[C@H](OC(C)=O)[C@@H]1C)C4=O [Rifabutin]
CLint scaled ([3]; s9): 219 mL/min/kg | half-life ([3]; s9): 0.417 h | remaining at 2 h ([3]; s9): 4.6% | Papp A→B [4]: 3.57 ×10⁻⁶ cm/s | Papp B→A [4]: 16.8 ×10⁻⁶ cm/s | efflux ratio [4]: 4.7 | CLint scaled ([5]; s9): 2.35 mL/min/kg | half-life ([5]; s9): 19.9 h | remaining at 2 h ([5]; s9): 89% | % Protein Bound [6]: 89.6 ± 0.5% | % Protein Free [6]: 10.4 ± 0.5% | % Matrix Stability (6 h) [6]: 104.9% | Papp A→B [7]: 11 ×10⁻⁶ cm/s | Papp B→A [7]: 7.15 ×10⁻⁶ cm/s | efflux ratio [7]: 0.648 | recovery [8]: 64.8% | Average % Stability [9]: 77.8% | Mean B-A % Recovery [10]: 59.10% | fold induction [11]: 2.36 | fold induction [12]: 2.65 | fold induction [13]: 2 | % Recovery (vs. T0 stability) [14]: 98.2% | Mean A-B % Recovery [15]: 91.30% | Mean B-A % Recovery [15]: 67.90%

COc1cc(N)c(Cl)cc1C(=O)NC1CCN(CCCOc2ccc(F)cc2)CC1OC (centres unmarked) [Cisapride]
inhibition at 0.09 µM [16]: 87.6%

CN[C@H](CC(C)C)C(=O)N[C@H]1C(=O)N[C@@H](CC(N)=O)C(=O)N[C@H]2C(=O)N[C@H]3C(=O)N[C@H](C(=O)N[C@H](C(=O)O)c4cc(O)cc(O)c4-c4cc3ccc4O)[C@H](O)c3ccc(c(Cl)c3)Oc3cc2cc(c3O[C@@H]2O[C@H](CO)[C@@H](O)[C@H](O)[C@H]2O[C@H]2C[C@](C)(N)[C@H](O)[C@H](C)O2)Oc2ccc(cc2Cl)[C@H]1O [Vancomycin, reference compound]
reduction in S. aureus kidney burden ([17]; vancomycin alone, 110 mg/kg sc twice daily days 1-3, NRS384, day 4): 2–3 log | reduction in S. aureus kidney burden ([18]; vancomycin alone, 110 mg/kg sc twice daily): ~ 4 log | hematology changes (red cell mass decrease, neutrophil decrease, platelet increase) ([19]; males given vancomycin alone 110 mg/kg/day, end of treatment): also noted in males given vancomycin alone | body weight, body weight gains, food consumption changes ([19]; rat, IV QD 14 days, alone or in combination with vancomycin): no body weight, body weight gains, or food consumption changes

CO[C@H]1/C=C/O[C@@]2(C)Oc3c(C)c(O)c4c(O)c(c(/C=N/N5CCN(C)CC5)c(O)c4c3C2=O)NC(=O)/C(C)=C\C=C\[C@H](C)[C@H](O)[C@@H](C)[C@@H](O)[C@@H](C)[C@H](OC(C)=O)[C@@H]1C [Compound 1, rifampicin]
Broth MIC [20]: 16 µM | CLint scaled ([3]; S9 microsomes): < 45.5 mL/min/kg | remaining at 2 h ([3]; S9 microsomes): 125% | Intracellular MIC [1]: 1 µM | Broth MIC [21]: 16 µM | Papp A→B [4]: 0.287 ×10⁻⁶ cm/s | Papp B→A [4]: 6.25 ×10⁻⁶ cm/s | recovery [4]: 76.5% | CLint scaled ([5]; S9 microsomes): < 23.4 mL/min/kg | remaining at 2 h ([5]; S9 microsomes): 129% | Intracellular MIC [22]: No activity | Intracellular MIC [23]: No activity | % Protein Bound [6]: 79.1 ± 0.6% | % Protein Free [6]: 20.9 ± 0.6% | % Matrix Stability (6 h) [6]: 74.3% | Papp A→B [7]: 0.589 ×10⁻⁶ cm/s | Papp B→A [7]: 5.93 ×10⁻⁶ cm/s | recovery [8]: 79.5% | Broth MIC [2]: 0.0156 µM | S. aureus kidney burden, efficacy [17, 24]: effective; also recorded: reduced kidney burden | S. aureus kidney burden, efficacy ([17]; 25 mg/kg monotherapy): ineffective | S. aureus kidney burden, efficacy ([17]; doses lower than 0.25 mg/kg in combination with vancomycin): efficacy was reduced to vancomycin alone levels | S. aureus kidney burden [18, 24]: to or near the limit of detection | Average % Stability [9]: 85.2% | Mean B-A % Recovery [10]: 80.80% | % Recovery (vs. T0 stability) [14]: 81.9% | Mean B-A % Recovery [15]: 74.40%

CNCCOc1ccc2nc3c4c5c6c(C)c(O)c4c(=O)c(c-3oc2c1)NC(=O)C(C)=CC=CC(C)C(O)C(C)C(O)C(C)C(OC(C)=O)C(C)C(OC)C=COC(C)(O6)C5=O (centres unmarked) [Compound 3]
Intracellular MIC [1]: 1 µM | Broth MIC [2]: 0.0457 µM
